{"source": "patent US20050079566A1", "about": "“Analytical methods for determination of proteolytic cleavage at specific sites” (priority 2003, published 2005)", "key": {"TAL reagent": {"test_system": "TAL reagent", "conditions": "Example 4, FIG. 4; peptide at 40 ng/ml, detection with HYB 100-01-POD", "quoted_text": "Under precautions to keep endotoxin contamination to a minimum, a solution of peptide (SEQ ID NO:12) at a concentration of 40 ng/ml in LAL reagent water (LRW) (Cambrex) was added to all wells of a streptavidin Immobilizer 96-well microtiter plate (Nunc) at 100 μl per well. After incubation for 10 minutes at 20-25° C., 100 μl of Control Standard Endotoxin (CSE) solution of 10 EU/ml were added to the first well of the appropriate rows. Serial doubling dilutions were then carried out across the plate leaving the last well as a blank without endotoxin. A 0.5-ml vial of TAL reagent (Zhanjiang A&C Biologicals Ltd) was reconstituted in 0.5 ml of LRW. This was diluted 12-, 15-, 30- and 40-fold in endotoxin-free 50 mM Tris buffer (Cambrex), whereupon 100 μl of a given dilution were added to each well of the corresponding row. The microtiter plate was incubated at 37° C. for 45 minutes. The reaction was stopped by quickly emptying the wells followed by 3×2 minute washes with stop buffer (25% isopropanol v/v in 100 mM glycine-HCl, pH 2.4). The plate was then equilibrated with 2×10-30-second washes with wash buffer. HYB 100-01-POD was diluted to 0.5 μg/ml in dilution buffer and added to each well at 100 μl/well. […] The color reaction was stopped by adding 100 μl of 1 M sulfuric acid to each well and the absorbance measured at 450 nm in a microplate reader, subtracting the absorbance at 620 nm."}, "HYB 100-01-POD": {"test_system": "HYB 100-01-POD", "experiment": "ELISA: effect of peptide length and N-terminus on the signal with TAL reagent and HYB 100-01-POD", "format": "binding", "conditions": "Example 6, FIG. 6, activated TAL, HYB 100-01-POD 0.5 μg/ml; for signal: peptide coupled to Immobilizer plate", "description": "PBS (100 μl) was added to all wells of an Immobilizer 96-well microtiter plate (Nunc). The relevant peptides (SEQ ID NO:11, 13, 14, 15 and 16) were all diluted to 50 μg/ml in PBS and 100 μl of individual solutions added to the first well of the respective row. […] The peptides were allowed to couple to the plate for two hours at 20-25° C. Residual coupling activity was reduced by the addition of 50 μl of 50 mM Tris Buffer, pH 8.0, for 30 minutes. Each well was then washed with 100 μl of PBS. To 0.5 ml of TAL reagent (Zhanjiang A&C Biologicals Ltd) was added 15 EU of Control Standard Endotoxin (CSE) followed by 12 ml of endotoxin-free PBS, and 100 μl of this solution was then added to each well. The plate was then incubated at 37° C. for 45 minutes."}, "antisera": {"test_system": "antisera", "experiment": "Inhibition ELISA: cross-reactivity of antisera with peptides of different length", "format": "binding, mice", "conditions": "antisera against octapeptide QESGVSGR", "description": "Immunization of mice: Separate groups of BCG-vaccinated mice were immunized with six doses (10 μg carrier) of each of these conjugates at 14-day intervals and their sera tested by ELISA in wells coated with the corresponding peptide coupled at molar ratios of 5:1 or 2.5:1 to the opposite carrier at a coating concentration of 10 μg/ml (with respect to carrier) in 0.05 M sodium carbonate buffer, pH 9.6."}}, "note": "No end group written: not given here. *: point of attachment. Biotin = O=C1N[C@H]2[C@H](CS[C@H]2CCCCC(=O)*)N1", "data": [{"substance": "Biotin-VQAITDKDEISGRGF [Peptide SEQ ID NO:12]", "values": [{"measurement": "cleavage by endotoxin-activated TAL", "setting": "TAL reagent", "value": "site-specific cleavage"}]}, {"substance": "Biocytin-VQAITDKDEISGR [Peptide SEQ ID NO:11]", "values": [{"measurement": "coating concentration at which the maximal (or similar) signal is reached", "setting": "HYB 100-01-POD", "value": "about 0.05 μg/ml"}, {"measurement": "signal", "setting": "HYB 100-01-POD", "value": "much stronger signal"}]}, {"substance": "ITDKDEISGR [Peptide SEQ ID NO:15]", "values": [{"measurement": "coating concentration at which the maximal (or similar) signal is reached", "setting": "HYB 100-01-POD", "value": "12.5 to 25", "unit": "µg/mL"}]}, {"substance": "GVSGR [pentapeptide]", "values": [{"measurement": "cross-reactivity", "setting": "antisera; result in words", "value": "little or no cross-reactivity"}]}, {"substance": "AQESGVSGR [nonapeptide]", "values": [{"measurement": "cross-reactivity", "setting": "antisera", "value": "> 100", "unit": "%"}]}, {"substance": "Biocytin-VQAITDKDEISGRGF [Peptide SEQ ID NO:16]", "values": [{"measurement": "signal", "setting": "HYB 100-01-POD", "value": "slightly lower signal"}]}, {"substance": "DKDEISGR [Peptide SEQ ID NO:14]", "values": [{"measurement": "signal", "setting": "HYB 100-01-POD", "value": "almost totally lost"}]}]}
